According to patent US6461997B1, “Triazole sulfones having herbicidal activity” (Monsanto Technology LLC, priority 1999, dated 2002):

Columns and labels:
[1] = tested on: CHEAL (common lambsquarters); test: Pre-emergence herbicidal activity, warm season; format: in vivo, Chenopodium album; conditions: GR80 = lowest tested rate (300, 100, 30, 10 g/ha) with 80% or greater inhibition; approx. 14 days after treating; 30/21° C.
Outline: (§1)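 GR80 values derive from percent inhibition relative to untreated plants, read roughly 14 days after sowing and pre-emergence soil-surface treatment (compound in 50:50 acetone/water; rates typically 10, 30, 100, 300 g/ha). Warm-season weeds grew at 30/21° C day/night, cool-season ones at 18/13° C; an asterisk marks activity without reaching 80% at the highest rate.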

[2] = tested on: SETFA (giant foxtail); test: Pre-emergence herbicidal activity, warm season; format: in vivo, Setaria faberi; conditions: GR80 = lowest tested rate (300, 100, 30, 10 g/ha) with 80% or greater inhibition; approx. 14 days after treating; 30/21° C.
Outline: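 Activity is expressed as the rate giving 80% inhibition, with 300, 100, 30 and 10 g/ha typically tested. An asterisk marks activity short of 80% at the top rate. Warm-season grasses were held at 30/21 °C; cool-season blackgrass and wild buckwheat at 18/13 °C; scoring at about 14 days.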

[3] = tested on: DIGSA (large crabgrass); test: Pre-emergence herbicidal activity, warm season; format: in vivo, Digitaria sanguinalis; conditions: GR80 = lowest tested rate (300, 100, 30, 10 g/ha) with 80% or greater inhibition; approx. 14 days after treating; 30/21° C.
Outline: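 Pre-emergence soil-surface spray; rates 300/100/30/10 g/ha; acetone:water 50:50 diluent. Warm-season species (PANMI, DIGSA) grown at 30/21 °C, cool-season species (ALOMY, POLCO) at 18/13 °C. Inhibition scored ~14 d after treatment versus untreated controls → GR80.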

[4] = tested on: SINAR (wild mustard); test: Pre-emergence herbicidal activity, cool season; format: in vivo, Sinapis arvensis; conditions: lowest tested rate with 80% or greater inhibition; rates 300, 100, 30, 10 g/ha; about 14 days
Outline: as §1

[5] = tested on: ALOMY (blackgrass); test: Pre-plant incorporated (PPI) herbicidal activity, cool season; format: in vivo, Alopecurus myosuroides; conditions: for PPI activity GR80, ALOMY: pre-plant incorporated, lowest tested rate with 80% or greater inhibition, about 14 days; for Percent inhibition ALOMY / inhibition at 10 g/ha / inhibition at 30 g/ha / inhibition at 100 g/ha / inhibition at 300 g/ha / inhibition at 900 g/ha: weed, PPI application; for inhibition at 10 g/ha / inhibition at 30 g/ha / inhibition at 100 g/ha / inhibition at 300 g/ha / inhibition at 900 g/ha: Alopecurus myosuroides, read-out: Percent inhibition ALOMY
Experimental: (§2) In another set of tests, the pre-plant incorporated (PPI) activity of compounds of this invention was evaluated on the same species as for the pre-emergence tests described above. In the PPI tests the following procedure, designed to simulate PPI application, was used.
(§3) A pre-prepared topsoil mixture (described above) was placed in a pot and compacted to a depth of 1.0 to 1.25 cm from the top of the pot. Seeds of each of several monocotyledonous and dicotyledonous annual plant species were placed on top of the soil. A sufficient quantity of soil to cover the seeds and level fill the pot was weighed into an open container. A known amount of the test compound was dissolved or suspended in an organic solvent and applied by spraying to this cover soil. The cover soil was thoroughly mixed to distribute the test compound throughout the cover soil, and was then applied as a cover layer over the seeds. Untreated soil was used as a cover layer for control pots. After treatment the plants were placed in a greenhouse where they received 0.64 cm of overhead irrigation. All subsequent watering consisted of a light overhead mist and/or subirrigation as needed for germination and growth. Tables 9 and 10 below relate to warm season plant species which were placed after pre-emergence treatment in a greenhouse with a 30/21° C. day/night temperature regime. Tables 11 and 12 below relates to cool season plant species placed after pre-emergence treatment in a greenhouse or growth chamber with an 18/13° C. day/night temperature regime. Only the compounds of Examples 1, 6, 8, 11, 13 and 15-20 were included in PPI tests.
(§4) Approximately 14 days after planting and treating, the plants were observed and herbicidal efficacy recorded as percent inhibition by comparison with untreated plants.

[6] = tested on: XANST (cocklebur); test: Pre-plant incorporated (PPI) herbicidal activity, warm season; format: in vivo, Xanthium strumarium; conditions: PPI application; for inhibition at 10 g/ha / inhibition at 30 g/ha / inhibition at 100 g/ha / inhibition at 300 g/ha / inhibition at 900 g/ha: Xanthium strumarium, read-out: Percent inhibition XANST
Experimental: as §2, §3, §4

[7] = tested on: soybean (GLYMX); test: Selectivity test, PPI, warm season crop; format: in vivo, Glycine max; conditions: PPI application; for inhibition at 10 g/ha / inhibition at 30 g/ha / inhibition at 100 g/ha / inhibition at 300 g/ha / inhibition at 900 g/ha: Glycine max, read-out: Percent inhibition GLYMX
Experimental: as §3, §4
Additional pre-emergence and PPI tests were conducted by the procedures described above, on warm and cool season weed species in the presence of crop species, to assess herbicidal selectivity. Crop species included in warm season tests were corn (Zea mays, ZEAMX), rice (Oryza sativa, ORYSA) and soybean (Glycine max, GLYMX). Crop species included in cool season tests were wheat (Triticum aestivum, TRZAW), barley (Hordeunm vulgare, HORVX) and oilseed rape (Brassica napus, BRSNS).
Tables 15 and 16 relate to pre-emergence and PPI tests respectively on warm season species. Table 17 relates to pre-emergence tests on cool season species.

With `CCN(CC)C(=O)n1cnc(S(=O)(=O)C(F)(F)C(F)F)n1` [Example 16] the “Pre-emergence activity (GR80) CHEAL” value [1] was 300 g/ha, the “Pre-emergence activity (GR80) SETFA” value [2] was 30 g/ha and the “Pre-emergence activity (GR80) DIGSA” value [3] was 30 g/ha. For the same molecule, the “Pre-emergence activity GR80, SINAR” value [4] was 100 g/ha, the “PPI activity GR80, ALOMY” value [5] was 30 g/ha and the “Percent inhibition ALOMY” value ([5]; 10 g/ha) was 40%. The “Percent inhibition ALOMY” value ([5]; 30 g/ha) was 95%, the “Percent inhibition ALOMY” value ([5]; 100 g/ha) was 100% and the “Percent inhibition ALOMY” value ([5]; 300 g/ha) was 100%. The “Percent inhibition ALOMY” value ([5]; 900 g/ha) was 100%, the “Percent inhibition XANST” value ([6]; 10 g/ha) was 0% and the “Percent inhibition XANST” value ([6]; 30 g/ha) was 0%. The “Percent inhibition XANST” value ([6]; 100 g/ha) was 0%, the “Percent inhibition XANST” value ([6]; 300 g/ha) was 0% and the “Percent inhibition XANST” value ([6]; 900 g/ha) was 95%. The “Percent inhibition GLYMX” value ([7]; 10 g/ha) was 0%, the “Percent inhibition GLYMX” value ([7]; 30 g/ha) was 0% and the “Percent inhibition GLYMX” value ([7]; 100 g/ha) was 10%. The “Percent inhibition GLYMX” value ([7]; 300 g/ha) was 10% and the “Percent inhibition GLYMX” value ([7]; 900 g/ha) was 80%.
For `C=CCC(F)(F)S(=O)(=O)c1ncn(C(=O)N(CC)CC)n1` [Example 17, 1-(N,N-diethylcarbamoyl)-3-[(1,1-difluoro-3-butenyl)sulfonyl]-1,2,4-triazole], the “Pre-emergence activity (GR80) CHEAL” value [1] was 100 g/ha, the “Pre-emergence activity (GR80) SETFA” value [2] was 100 g/ha and the “Pre-emergence activity (GR80) DIGSA” value [3] was 100 g/ha. For the same molecule, the “Pre-emergence activity GR80, SINAR” value [4] was 100 g/ha, the inhibition at 10 g/ha ([5]; 10 g/ha) was 50% and the inhibition at 30 g/ha ([5]; 30 g/ha) was 60%. It also gave an inhibition at 100 g/ha ([5]; 100 g/ha) of 100%, an inhibition at 300 g/ha ([5]; 300 g/ha) of 90% and an inhibition at 900 g/ha ([5]; 900 g/ha) of 100%. The “PPI activity GR80, ALOMY” value [5] was 30 g/ha, the inhibition at 10 g/ha ([6]; 10 g/ha) was 0% and the inhibition at 30 g/ha ([6]; 30 g/ha) was 0%. It also gave an inhibition at 100 g/ha ([6]; 100 g/ha) of 0%, an inhibition at 300 g/ha ([6]; 300 g/ha) of 20% and an inhibition at 900 g/ha ([6]; 900 g/ha) of 100%. It also gave an inhibition at 10 g/ha ([7]; 10 g/ha) of 0%, an inhibition at 30 g/ha ([7]; 30 g/ha) of 0% and an inhibition at 100 g/ha ([7]; 100 g/ha) of 0%. The inhibition at 300 g/ha ([7]; 300 g/ha) was 20% and the inhibition at 900 g/ha ([7]; 900 g/ha) was 80%.
With `C=C(C)CC(F)(F)S(=O)(=O)c1ncn(C(=O)N(CC)CC)n1` [Example 18] the “Pre-emergence activity (GR80) CHEAL” value [1] was 300 g/ha, the “Pre-emergence activity (GR80) SETFA” value [2] was 100 g/ha and the “Pre-emergence activity (GR80) DIGSA” value [3] was 100 g/ha. The “Pre-emergence activity GR80, SINAR” value [4] was 300 g/ha, the inhibition at 10 g/ha ([5]; 10 g/ha) was 60% and the inhibition at 30 g/ha ([5]; 30 g/ha) was 60%. The inhibition at 100 g/ha ([5]; 100 g/ha) was 30%, the inhibition at 300 g/ha ([5]; 300 g/ha) was 80% and the inhibition at 900 g/ha ([5]; 900 g/ha) was 80%. For the same molecule, the “PPI activity GR80, ALOMY” value [5] was 100 g/ha, the inhibition at 10 g/ha ([6]; 10 g/ha) was 0% and the inhibition at 30 g/ha ([6]; 30 g/ha) was 0%. The inhibition at 100 g/ha ([6]; 100 g/ha) was 0%, the inhibition at 300 g/ha ([6]; 300 g/ha) was 0% and the inhibition at 900 g/ha ([6]; 900 g/ha) was 30%. The inhibition at 10 g/ha ([7]; 10 g/ha) was 0%, the inhibition at 30 g/ha ([7]; 30 g/ha) was 0% and the inhibition at 100 g/ha ([7]; 100 g/ha) was 0%. For the same molecule, the inhibition at 300 g/ha ([7]; 300 g/ha) was 0% and the inhibition at 900 g/ha ([7]; 900 g/ha) was 50%.
With `C=C(Br)CC(F)(F)S(=O)(=O)c1ncn(C(=O)N(CC)CC)n1` [Example 19] the “Pre-emergence activity (GR80) CHEAL” value [1] was 100 g/ha, the “Pre-emergence activity (GR80) SETFA” value [2] was 300 g/ha and the “Pre-emergence activity (GR80) DIGSA” value [3] was 100 g/ha. For the same molecule, the “Pre-emergence activity GR80, SINAR” value [4] was 30 g/ha, the inhibition at 10 g/ha ([5]; 10 g/ha) was 60% and the inhibition at 30 g/ha ([5]; 30 g/ha) was 50%. It also gave an inhibition at 100 g/ha ([5]; 100 g/ha) of 70%, an inhibition at 300 g/ha ([5]; 300 g/ha) of 100% and an inhibition at 900 g/ha ([5]; 900 g/ha) of 100%. The “PPI activity GR80, ALOMY” value [5] was 30 g/ha, the inhibition at 10 g/ha ([6]; 10 g/ha) was 0% and the inhibition at 30 g/ha ([6]; 30 g/ha) was 0%. The inhibition at 100 g/ha ([6]; 100 g/ha) was 0%, the inhibition at 300 g/ha ([6]; 300 g/ha) was 0% and the inhibition at 900 g/ha ([6]; 900 g/ha) was 90%. It also gave an inhibition at 10 g/ha ([7]; 10 g/ha) of 0%, an inhibition at 30 g/ha ([7]; 30 g/ha) of 0% and an inhibition at 100 g/ha ([7]; 100 g/ha) of 0%. It also gave an inhibition at 300 g/ha ([7]; 300 g/ha) of 0% and an inhibition at 900 g/ha ([7]; 900 g/ha) of 20%.
